From patent US20130005696A1, “BUFADIENOLIDE DERIVATIVES, PREPARING PROCESS THEREOF, COMPOSITION COMPRISING THE SAME AND THE USE THEREOF” (priority 2011, published 2013)
Where two headings read alike, the source gives them in different places.

What was measured:
[1] = system: MCF-7 human breast carcinoma cell line; assay: In vitro antitumor activity assay (SRB), MCF-7; format: cell-based
From the text: (§1) HeLa human cervical carcinoma cell line, A-549 human non-small cell lung carcinoma cell line, NCI-H2228 human lung carcinoma cell line, NCI-H460 human lung carcinoma cell line, MDA-MB-231 human breast carcinoma cell line, MCF-7 human breast carcinoma cell line, Bel-7402 human hepatic carcinoma cell line, Hep3B human hepatic carcinoma cell line, QGY-7703 human hepatic carcinoma cell line, MV-4-11 human leukemic cell line, DAUDI human leukemic cell line, Jurkat human leukemic cell line, A498 renal carcinoma cell line, LoVo human colon carcinoma cell line, HCT1116 human colon carcinoma cell line, A431 human skin carcinoma cell line, PANC-1 human pancreatic carcinoma cell line, U87-MG human brain carcinoma cell line, SH-SY5Y human brain carcinoma cell line, RPMI-8226 human bone carcinoma cell line, HT1080 human fibrosarcoma cell line, PC-3 human prostatic carcinoma cell line, AGS human gastric adenocarcinoma cell line, and BGC-823 human gastric adenocarcinoma cell line were purchased from the Cell Bank of the Chinese Academy of Sciences.
(§2) The positive control is bufalin (formulated according to the common method), its purity is 98% or more by HPLC-UV and its structure is identified by NMR. The compounds to be tested and the positive control were diluted with normal saline with a concentration gradient of 10^−4 M, 10^−5 M, 10^−6 M, 10^−7 M and 10^−8 M.
(§3) According to cell growth rate, tumor cells in the log phase of growth were seeded into 96-well culture plates at 100 μL per well, and allowed to attach for 24 hours, followed by addition of a test compound or positive control at 10 μL per well. For each concentration, the test was carried out in triplicate wells. Solvent control wells with addition of normal saline into cell culture and a blank well containing only cell culture medium but without cells for zeroing were also included. The tumor cells were incubated for 72 hours at 37° C. under 5% CO2, and then the culture medium (RPMI-1640) was removed. The cells were fixed with 10% cool TCA by incubating for 1 h at 4° C., washed with distilled water for 5 times, and dried naturally in the air. A solution of SRB (Sigma) (4 mg/mL) in 1% glacial acetic acid was added at 100 μL per well, and the cells were stained for 15 minutes at room temperature, and the supernatant was discarded. The plates were washed for 5 times with 1% acetic acid, and dried in air. Finally, Tris solution was added at 150 μL per well, and the absorbance (A) was measured at a wavelength of 515 nm using a microplate reader. The growth inhibition on tumor cell proliferation was calculated according to the following equation:
(§4) Growth Inhibition (%)=[(Absorbance of negative control−Absorbance of blank)−(Absorbance of sample−Absorbance of blank)]/(Absorbance of negative control−Absorbance of blank)×100%
(§5) Drug concentration: 10 μM, 1 μM, 0.1 μM, 10 nM, 1 nM, 0.1 nM.
(§6) IC50 was fitted by GraphPad Prism 4.

[2] = system: MDA-MB-231 human breast carcinoma cell line; assay: In vitro antitumor activity assay (SRB), MDA-MB-231; format: cell-based; settings: MDA-MB-231, 72 h, Table 3
From the text: as §1, §2
(§7) According to cell growth rate, tumor cells in the log phase of growth were seeded into 96-well culture plates at 100 μL per well, and allowed to attach for 24 hours, followed by addition of a test compound or positive control at 10 μL per well. For each concentration, the test was carried out in triplicate wells. […] Finally, Tris solution was added at 150 μL per well, and the absorbance (A) was measured at a wavelength of 515 nm using a microplate reader. The growth inhibition on tumor cell proliferation was calculated according to the following equation:
(§8) Growth Inhibition (%)=[(Absorbance of negative control−Absorbance of blank)−(Absorbance of sample−Absorbance of blank)]/(Absorbance of negative control−Absorbance of blank)×100% […]

[3] = system: BGC-823 human gastric adenocarcinoma cell line; assay: In vitro antitumor activity assay (SRB), BGC-823; format: cell-based; settings: BGC-823, 72 h, Table 3
From the text: as §1, §2, §7, §8

[4] = system: PANC-1 human pancreatic carcinoma cell line; assay: In vitro antitumor activity assay (SRB), PANC-1; format: cell-based; settings: PANC-1, 72 h, Table 3
From the text: as §1, §2, §7, §8

[5] = system: U87-MG human brain carcinoma cell line; assay: In vitro antitumor activity assay (SRB), U87-MG; format: cell-based; settings: 72 h, Table 3
From the text: as §1, §2, §7, §8

[6] = system: NCI-H2228 human lung carcinoma cell line; assay: In vitro antitumor activity assay (SRB), NCI-H2228; format: cell-based; settings: NCI-H2228, 72 h, Table 3
From the text: as §1, §2, §7, §8

[7] = system: MV-4-11 human leukemic cell line; assay: In vitro antitumor activity assay (SRB), MV-4-11; format: cell-based; settings: MV-4-11, 72 h, Table 3
From the text: as §1, §2, §7, §8

[8] = system: A498 renal carcinoma cell line; assay: In vitro antitumor activity assay (SRB), A498; format: cell-based, human; settings: A498, 72 h, Table 3
From the text: as §1, §2, §7, §8

[9] = system: RPMI-8226 human bone carcinoma cell line; assay: In vitro antitumor activity assay (SRB), RPMI8226; format: cell-based; settings: RPMI8226, 72 h, Table 3
From the text: as §1, §2, §7, §8

[10] = system: Hep3B human hepatic carcinoma cell line; assay: In vitro antitumor activity assay (SRB), Hep3B; format: cell-based; settings: 72 h, Table 3
From the text: as §1, §2, §7, §8

[11] = system: A431 human skin carcinoma cell line; assay: In vitro antitumor activity assay (SRB), A431; format: cell-based; settings: A431, 72 h, Table 3
From the text: as §1, §2, §7, §8

[12] = system: Jurkat human leukemic cell line; assay: In vitro antitumor activity assay (SRB), Jurkat; format: cell-based; settings: 72 h, Table 3
From the text: as §1, §2, §7, §8

[13] = system: PC-3 human prostatic carcinoma cell line; assay: In vitro antitumor activity assay (SRB), PC-3; format: cell-based
From the text: as §1, §2, §3, §4, §5, §6

C[C@]12CC[C@H](O)C[C@H]1CC[C@@H]1[C@@H]2CC[C@]2(C)[C@@H](c3ccc(=O)oc3)CC[C@]12O [bufalin, reference compound]
IC50 ([1]; Homo sapiens, MCF7, MCF-7, 72 h, Table 3, read-out: IC50 (72 h), MCF-7): 45.9 ± 5.18 nM
IC50 ([1]; Homo sapiens, MCF7, MCF-7, Table 2, read-out: IC50, inhibition of cell proliferation, MCF-7): 28.8 ± 3.71 nM
IC50 ([2]; Homo sapiens): 28.7 ± 1.66 nM
IC50 ([3]; Homo sapiens): 9.06 ± 0.37 nM
IC50 ([4]; Homo sapiens): 9.88 ± 0.27 nM
IC50 ([5]; Homo sapiens, U-87 MG): 13 ± 1.74 nM
IC50 ([6]; Homo sapiens): 16.1 ± 2.51 nM
IC50 ([7]; Homo sapiens, MV4-11): 6.26 ± 2.22 nM
IC50 ([8]; Homo sapiens): 6.41 ± 0.75 nM
IC50 ([9]; Homo sapiens, RPMI-8226): 13.5 ± 0.82 nM
IC50 ([10]; Homo sapiens): > 1000 nM
IC50 ([11]; Homo sapiens, A-431): 26.6 ± 5.35 nM
IC50 ([12]; Homo sapiens): 8.79 ± 2.48 nM
IC50 ([13]; Homo sapiens, Prostatic carcinoma cell, PC-3, 72 h, Table 3, read-out: IC50 (72 h), PC-3): 5 ± 0.45 nM
IC50 ([13]; Homo sapiens, Prostatic carcinoma cell, PC-3, Table 2, read-out: IC50, inhibition of cell proliferation, PC-3): 17.3 ± 2.76 nM

C[C@]12CC[C@H](OC(=O)NC3CCNCC3)C[C@H]1CC[C@@H]1[C@@H]2CC[C@]2(C)[C@@H](c3ccc(=O)oc3)CC[C@]12O.Cl [II1E-01•HCl]
IC50 ([1]; MCF-7, 72 h, Table 3, read-out: IC50 (72 h), MCF-7): 10.8 ± 1.08 nM
IC50 [2]: 7.31 ± 0.21 nM
IC50 [3]: 0.56 ± 0.07 nM
IC50 [4]: 0.57 ± 0.06 nM
IC50 [5]: 1.98 ± 0.3 nM
IC50 [6]: 1.62 ± 0.5 nM
IC50 [7]: 0.64 ± 0.11 nM
IC50 [8]: 0.37 ± 0.05 nM
IC50 [9]: 1.71 ± 0.03 nM
IC50 [10]: > 1000 nM
IC50 [11]: 3.31 ± 0.09 nM
IC50 [12]: 0.67 ± 0.1 nM
IC50 ([13]; PC-3, 72 h, Table 3, read-out: IC50 (72 h), PC-3): 0.3 ± 0.08 nM
